Assay results as given in US20220289794A1, “SYNTHETIC ANTIMICROBIAL PEPTIDES” (priority 2019, published 2022).
In brackets after ≈: the same amount, converted by molar mass. Read-outs that look alike come from different tables or passages of the source. Non-standard residues stand in square brackets, D forms with d. Residues, ends and D or L forms follow the SMILES beside them. dDip = N[C@@H](C(=O)O)C(c1ccccc1)c1ccccc1; Dip = N[C@H](C(=O)O)C(c1ccccc1)c1ccccc1; 2Nal = N[C@@H](Cc1ccc2ccccc2c1)C(=O)O

What was measured:
[1] = tested on: Enterococcus faecalis ATCC 29212; conditions: E. faecalis ATCC 29212
B. subtilis (ATCC-6633) = assay: Broad-spectrum activity against Gram-Positive bacteria (MIC); assay type: cell-based; parameters: unit not given here
[2] = tested on: Escherichia coli (ATCC 25922)
[3] = tested on: Enterococcus faecium ATCC 700221; conditions: E. faecium ATCC 700221
[4] = tested on: P. aeruginosa (ATCC BAA-1744); assay: Broad-spectrum activity against Gram-Negative bacteria (MIC); assay type: cell-based; conditions: Table 16, Gram-negative panel
[5] = tested on: Enterococcus faecium ATCC 27270; conditions: E. faecium ATCC 27270
B. cereus (ATCC-13061) = assay: Broad-spectrum activity against Gram-Positive bacteria (MIC); assay type: cell-based; parameters: unit not given here
[6] = tested on: Streptococcus pneumoniae ATCC 51938; conditions: S. pneumoniae ATCC 51938
[7] = tested on: Pseudomonas aeruginosa (ATCC 27883)
[8] = tested on: Enterococcus faecalis ATCC 51575; conditions: E. faecalis ATCC 51575
[9] = tested on: Methicillin-resistant Staphylococcus aureus MRSA (ATCC BAA-1556)
[10] = tested on: P. aeruginosa (ATCC 10145); assay: Broad-spectrum activity against Gram-Negative bacteria (MIC); assay type: cell-based; conditions: Table 16, Gram-negative panel
[11] = tested on: Klebsiella pneumoniae (ATCC BAA-1705); conditions: Table 16, Gram-negative panel
[12] = tested on: Streptococcus pneumoniae ATCC 49619; conditions: S. pneumoniae ATCC 49619
[13] = tested on: Klebsiella pneumoniae ATCC 13883; conditions: Table 16, Gram-negative panel
E. coli (ATCC BAA-2452) = assay: Broad-spectrum activity against Gram-Negative bacteria (MIC); assay type: cell-based; conditions: Table 16, Gram-negative panel
[14] = tested on: A. baumannii (ATCC BAA-1605); assay: as above; assay type: cell-based; conditions: Table 16, Gram-negative panel
human red blood cells = tested on: human red blood cells; parameters: unit not given beside the values
in vitro = conditions: human, fresh human red blood cells (washed), pH 7.4
Description: Hemolytic Assay. We investigated the hemolytic effect (hemolytic assay) of the compounds on fresh human red blood cells to determine the cytotoxicity of the compounds. The hemolytic assay was conducted by serial dilution using 1% Triton X, 0.2% Triton X and PBS buffer pH 7.4 as controls. […] 3 mL of the fresh blood sample was washed severally by adding about 10 mL PBS buffer pH 7.4 and centrifuge at 4000 G until the supernatant was cleared. The washed blood sample was diluted to 20 mL volume to be used in the study. An aliquot of 190 μL blood sample was added to 10 μL compound sample in an Eppendorf tube and incubated for 30 min. After incubation, it was centrifuged at 4000 G for 5 min. 100 μL supernatant aliquot was diluted with 1 mL PBS buffer, and the absorbance was measured at 567 nm for the sample. % hemolysis is calculated as follows:
Where AX is the absorbance at various serial concentrations A0 absorbance of PBS buffer pH 7.4 AX absorbance of 0.2% Triton X control equivalent to 100%

| Molecule | Broad-spectrum activity E. faecalis (ATCC 29212) [1] | Broad-spectrum activity B. subtilis (ATCC-6633) (B. subtilis (ATCC-6633)) | MIC E. coli ATCC 25922 ([2]; E. coli ATCC 25922) [µg/mL] | Broad-spectrum activity E. faecium (ATCC 700221) [3] | MIC P. aeruginosa (ATCC BAA-1744) [4] [µg/mL] | Broad-spectrum activity E. faecium (ATCC 27270) [5] | Broad-spectrum activity B. cereus (ATCC-13061) (B. cereus (ATCC-13061)) | Broad-spectrum activity S. pneumoniae (ATCC 51938) [6] | MIC P. aeruginosa ATCC 27883 ([7]; P. aeruginosa ATCC 27883) [µg/mL] | MIC S. aureus ATCC 29213 (S. aureus ATCC 29213; S. aureus ATCC 29213) [µg/mL] | Broad-spectrum activity E. faecalis (ATCC 51575) [8] | MIC MRSA ATCC BAA-1556 ([9]; MRSA ATCC BAA-1556) [µg/mL] | MIC P. aeruginosa (ATCC 10145) [10] [µg/mL] | MIC K. pneumonia (ATCC BAA-1705) [11] [µg/mL] | Broad-spectrum activity S. pneumoniae (ATCC 49619) [12] | MIC K. pneumonia (ATCC 13883) [13] [µg/mL] | MIC E. coli (ATCC BAA-2452) (E. coli (ATCC BAA-2452)) [µg/mL] | MIC A. baumannii (ATCC BAA-1605) [14] [µg/mL] | MIC E. coli ATCC 25922 ([2]; ATCC 25922) [µg/mL] | MIC P. aeruginosa ATCC 27883 ([7]; ATCC 27883) [µg/mL] | also measured |
| --- | --- | --- | --- | --- | --- | --- | --- | --- | --- | --- | --- | --- | --- | --- | --- | --- | --- | --- | --- | --- | --- |
| c[Arg-Arg-Arg-Arg-dip-Trp-dip] [IFX-098] | 6.2 | 1.5 | 12.5 | 6.2 | 25 | 3.1 | 3.1 | 25 | 12.5 | 3.1 | 12.5 | 1.5 | 25 | 25 | 50 | 50 | 25 | 12.5 | – | – | – |
| c[Arg-Arg-Arg-Arg-Dip-Dip-dip] [IFX-060] | 3.1 | 1.5 | 6.2 | 1.5 | 12.5 | 3.1 | 3.1 | 12.5 | 12.5 | 1.5 | 12.5 | 1.5 | 25 | 12.5 | 25 | 50 | 12.5 | 6.2 | – | – | – |
| c[Arg-Arg-Arg-Arg-naI-trp-naI] [IFX-143] | 6.2 | 3.1 | 16 | 3.1 | 25 | 3.1 | 6.2 | 12.5 | 64 | 1.5 | 12.5 | 3.1 | 50 | 25 | 50 | > 50 | 25 | 12.5 | – | – | – |
| c[arg-arg-Arg-Arg-naI-Trp-naI] [IFX-136] | 6.2 | 1.5 | 16 | 3.1 | 25 | 3.1 | 3.1 | 12.5 | 32 | 1.5 | 6.2 | 3.1 | 50 | 25 | 25 | 50 | 12.5 | 12.5 | – | – | – |
| c[arg-Arg-Arg-Arg-Dip-Trp-Dip] [IFX-094] | 12.5 | 3.1 | 12.5 | 12.5 | 25 | 6.2 | 6.2 | 25 | 6.2 | 3.1 | 12.5 | 3.1 | 50 | 12.5 | 25 | 50 | 12.5 | 12.5 | – | – | – |
| c[Arg-Arg-Arg-Arg-dip-trp-dip] [IFX-100] | 6.2 | 1.5 | 12.5 | 6.2 | 25 | 3.1 | 3.1 | 12.5 | 12.5 | 1.5 | 12.5 | 1.5 | 50 | 25 | 25 | > 50 | 25 | 12.5 | – | – | – |
| c[arg-arg-arg-arg-dip-dip-dip] [IFX-067] | 6.2 | 1.5 | 6.2 | 3.1 | 25 | 3.1 | 3.1 | 12.5 | 12.5 | 3.1 | 6.2 | 1.5 | 50 | 25 | 25 | > 50 | 12.5 | 12.5 | – | – | – |
| N=C(N)NCCC[C@@H]1NC(=O)[C@H](CCCNC(=N)N)NC(=O)[C@H](C(c2ccccc2)c2ccccc2)NC(=O)[C@H](C(c2ccccc2)c2ccccc2)NC(=O)[C@H](CCCNC(=N)N)NC(=O)[C@H](CCCNC(=N)N)NC(=O)[C@H](C(c2ccccc2)c2ccccc2)NC1=O [IFX-017, c[Arg-Arg-Dip-Dip-Arg-Arg-Dip]] (cyclo(R[Dip]RR[Dip][Dip]R)) | 12.5 | 1.5 | – | 1.5 | 25 (≈ 19.3 µM) | 3.1 | 6.2 | 12.5 | – | – | – | – | 25 (≈ 19.3 µM) | 25 (≈ 19.3 µM) | 50 | 50 (≈ 38.6 µM) | 12.5 (≈ 9.66 µM) | 12.5 (≈ 9.66 µM) | >100 | >100 | MIC S. aureus ATCC 29213 (S. aureus ATCC 29213; ATCC 29213): 6.2 µg/mL (≈ 4.79 µM); MIC MRSA ATCC BAA-1556 ([9]; ATCC BAA-1556): 12.5 µg/mL (≈ 9.66 µM); HC50 (human red blood cells): 290 |
| N=C(N)NCCC[C@@H](N)C(=O)N[C@H](CCCNC(=N)N)C(=O)N[C@H](CCCNC(=N)N)C(=O)N[C@H](CCCNC(=N)N)C(=O)N[C@@H](C(=O)N[C@@H](C(=O)N[C@@H](C(=O)O)C(c1ccccc1)c1ccccc1)C(c1ccccc1)c1ccccc1)C(c1ccccc1)c1ccccc1 [IFX-067-1] (H-[dR][dR][dR][dR][dDip][dDip][dDip]-OH) | – | – | – | – | – | – | – | – | – | – | – | – | – | – | – | – | – | – | 6.2 (≈ 4.72 µM) | 12.5 (≈ 9.52 µM) | HC50 at 0.5 h (in vitro): 390 µg/mL; MIC S. aureus ATCC 29213 (S. aureus ATCC 29213; ATCC 29213): 3.1 µg/mL (≈ 2.36 µM); MIC MRSA ATCC BAA-1556 ([9]; ATCC BAA-1556): 3.1 µg/mL (≈ 2.36 µM) |
| N=C(N)NCCC[C@@H]1NC(=O)[C@H](CCCNC(=N)N)NC(=O)[C@H](CCCNC(=N)N)NC(=O)[C@@H](CCCNC(=N)N)NC(=O)[C@H](Cc2ccc3ccccc3c2)NC(=O)[C@H](Cc2ccc3ccccc3c2)NC(=O)[C@H](Cc2c[nH]c3ccccc23)NC1=O [IFX-108, c[arg-Arg-Arg-Arg-Trp-NaI-NaI]] (cyclo([2Nal][2Nal][dR]RRRW)) | – | – | – | – | – | – | – | – | – | – | – | – | – | – | – | – | – | – | 12.5 (≈ 10.4 µM) | 6.2 (≈ 5.14 µM) | HC50 at 0.5 h (in vitro): 350 µg/mL; MIC S. aureus ATCC 29213 (S. aureus ATCC 29213; ATCC 29213): 1.5 µg/mL (≈ 1.24 µM); MIC MRSA ATCC BAA-1556 ([9]; ATCC BAA-1556): 1.5 µg/mL (≈ 1.24 µM) |
